Among the data in patent publication US20110301370A1, “METHOD FOR PREPARING OREGANIC ACID” (CONSEJO SUPERIOR DE INVESTIGACIONES CIENTÍFICAS, priority 2008, published 2011) are melting point values, retold here.

As a reminder, the melting point is the temperature of the solid-liquid transition. The compound `O=C(O)C/C(C(=O)O)=C(\CCCCCCCCCCCCCCCCOS(=O)(=O)O)C(=O)O` [1-Z, (Z)-3,4-dicarboxy-20-sulfooxy-3-eicosenoic acid] returned a melting point of 63 to 65 °C.
